Assay results reported in patent publication US9545119B2, “Specific vanillyl lignans and use thereof as taste improvers” (SYMRISE AG, priority 2011, dated 2017).
Marks after values point to notes of the source that are not given here.

What was measured:
Format in all cases: in vivo
[1] = system: caffeine solution containing 500 ppm; test: Bitterness reduction in a bitter substance solution (expert panel), caffeine; conditions: for Reduction in the bitterness impression: * = significant; for Bitterness impression (on scale of 1-10) b) with test substance: 25 ppm test substance + 500 ppm caffeine, scale 1 (not bitter) to 10 (extremely bitter), panel mean; for Effect on bitterness (in words): statement in the description referring to Example 1
Text: (§1) In order to quantify a reduction in the bitterness impression in a sample, the bitterness of a caffeine solution containing 500 ppm was compared by a panel of experts, in each case with a sample containing 500 ppm caffeine and also the respectively given quantity of a substance to be assessed (with regard to the ability thereof to reduce bitterness), with assessment on a scale from 1 (not bitter) to 10 (extremely bitter). For the evaluation, i.e. the calculation of the reduction (in %) of the bitterness impression, in each case, the mean values of the estimates by the expert panel for the caffeine solution and the sample to be compared, which contained caffeine and a substance under assessment were used. In addition to caffeine, other bitter substances such as theobromine, naringin, quinine hydrochloride dihydrate and salicin were tested using the same method.

[2] = system: 300 ppm theobromine; test: Bitterness reduction in a bitter substance solution (expert panel), theobromine; conditions: for Reduction in the bitterness impression: 25 ppm test substance + 300 ppm theobromine vs theobromine alone; for Bitterness impression (on scale of 1-10) b) with test substance: 25 ppm test substance + 300 ppm theobromine, scale 1-10
Text: as §1

[3] = system: 750 ppm epigallocatechin gallate (EGCG); test: Bitterness and astringency reduction in a bitter substance solution over time (expert panel); conditions: 100 ppm test substance + 750 ppm EGCG
Text: In order to quantify the reduction in the bitterness or astringency impression in a sample over a particular period of time, the bitterness or astringency of a solution containing 750 ppm epigallocatechin gallate (EGCG) was compared by a panel of experts, in each case with a sample containing 750 ppm epigallocatechin gallate and also the respectively shown quantity of a substance to be assessed (with regard to the ability thereof to reduce bitterness and/or astringency), in this case matairesinol (Compound 1-(−)).
Assessment was carried out on a scale from 1 (not bitter) to 10 (extremely bitter) or 1 (not astringent) to 10 (extremely astringent). The assessment by the panelists was carried out at specified time points (10 seconds, 30 seconds, 50 seconds and 70 seconds after ingestion of the respective sample). The samples were assessed by the panellists one after another following neutralisation. For the evaluation, i.e. the calculation of the reduction (in %) of the bitterness impression or astringency impression, at each time point, the mean values of the estimates by the expert panel for the epigallocatechin gallate solution and the sample to be compared therewith which contained the epigallocatechin gallate and the substance under assessment (in this case: matairesinol (Compound 1-(−)) were used.

[4] = system: 100 ppm naringin; test: Bitterness reduction in a bitter substance solution (expert panel), naringin; conditions: for Reduction in the bitterness impression: 25 ppm test substance + 100 ppm naringin vs naringin alone, * = significant; for Bitterness impression (on scale of 1-10) b) with test substance: 25 ppm test substance + 100 ppm naringin, scale 1-10
Text: as §1

[5] = system: 750 ppm epigallocatechin gallate (EGCG); test: Bitterness and astringency reduction in a bitter substance solution over time (expert panel); conditions: 100 ppm test substance + 750 ppm EGCG; time 0 s
[6] = system: 5 ppm quinine hydrochloride dihydrate; test: Bitterness reduction in a bitter substance solution (expert panel), quinine hydrochloride dihydrate
Text: as §1

[7] = system: 250 ppm salicin; test: Bitterness reduction in a bitter substance solution (expert panel), salicin
Text: as §1

[8] = 25 ppm test substance + 500 ppm caffeine vs 500 ppm caffeine alone

COc1cc(C[C@H]2COC(=O)[C@@H]2Cc2ccc(O)c(OC)c2)ccc1O [(−)-matairesinol (1-(−)), (3R,4R)-3,4-bis[(4-hydroxy-3-methoxyphenyl)methyl]oxolan-2-one]
Reduction in the bitterness impression [1, 8]: 35.5%*
Bitterness impression (on scale of 1-10) b) with test substance [1]: 2.7 ± 1.77
Reduction in the bitterness impression [2]: 24.7%
Bitterness impression (on scale of 1-10) b) with test substance [2]: 3.4 ± 1.49
% Reduction in the astringency impression ([3]; time 10 s): −10%*
% reduction in the bitterness impression ([3]; time 10 s): −30%*
% Reduction in the astringency impression ([3]; time 30 s): −15%
% reduction in the bitterness impression ([3]; time 30 s): −38%*
% Reduction in the astringency impression ([3]; time 50 s): −20%
% reduction in the bitterness impression ([3]; time 50 s): −33%*
% Reduction in the astringency impression ([3]; time 70 s): −23%
% reduction in the bitterness impression ([3]; time 70 s): −28%
Reduction in the bitterness impression [4]: 15.1%
Bitterness impression (on scale of 1-10) b) with test substance [4]: 4.9 ± 2.38
% Reduction in the astringency impression [5]: −11%
% reduction in the bitterness impression [5]: −15%

COc1cc(C2c3cc(O)c(OC)cc3CC(CO)C2CO)ccc1O (single isomer, unassigned; (+)) [(+)-isolariciresinol (5-(+)), 1,2,3,4-tetrahydro-7-hydroxy-1-(4-hydroxy-3-methoxy-phenyl)-6-methoxy-2,3-naphthalenedimethanol]
Reduction in the bitterness impression [1, 8]: 10.3%
Bitterness impression (on scale of 1-10) b) with test substance [1]: 4.1 ± 2.21

COc1cc(C[C@@H](CO)[C@H](CO)Cc2ccc(O)c(OC)c2)ccc1O [secoisolariciresinol, reference compound]
Amplification of the bitterness impression (printed in column Reduction in the bitterness impression) ([1]; 25 ppm test substance + 500 ppm caffeine vs 500 ppm caffeine alone, comparative example): 34%
Bitterness impression (on scale of 1-10) b) with test substance [1]: 5.2 ± 2.6
Effect on bitterness (in words) [1]: amplifies the bitterness
Effect on bitterness (in words) ([1]; listed as Secoisolariciresinol): capable of amplifying bitter taste impressions

COc1cc(C[C@H]2C(=O)OC[C@@H]2Cc2ccc(OC)c(OC)c2)ccc1O [(−)-arctigenin (4), (3R,4R)-4-[(3,4-dimethoxyphenyl)methyl]-3-[(4-hydroxy-3-methoxy-phenyl)methyl]oxolan-2-one]
Reduction in the bitterness impression [1, 8]: 11.5%
Bitterness impression (on scale of 1-10) b) with test substance [1]: 2.8 ± 1.68

COc1cc(C[C@H]2CO[C@H](c3ccc(O)c(OC)c3)[C@H]2CO)ccc1O [(+)-lariciresinol (3-(+)), 4-[[(3R,4R,5S)-5-(4-hydroxy-3-methoxyphenyl)-4-(hydroxy-methyl)-oxolan-3-yl]methyl]-2-methoxyphenol]
Reduction in the bitterness impression [1, 8]: 38.6%*
Bitterness impression (on scale of 1-10) b) with test substance [1]: 2.9 ± 1.41
Reduction in the bitterness impression ([6]; 25 ppm test substance + 5 ppm quinine hydrochloride dihydrate vs quinine alone, * = significant): 30.9%*
Bitterness impression (on scale of 1-10) b) with test substance ([6]; 25 ppm test substance + 5 ppm quinine hydrochloride dihydrate, scale 1-10): 2.5 ± 1.02
Reduction in the bitterness impression ([7]; 25 ppm test substance + 250 ppm salicin vs salicin alone): 17.1%
Bitterness impression (on scale of 1-10) b) with test substance ([7]; 25 ppm test substance + 250 ppm salicin, scale 1-10): 5.7 ± 2.97
Reduction in the bitterness impression [2]: 10.7%
Bitterness impression (on scale of 1-10) b) with test substance [2]: 3.7 ± 2.24
Reduction in the bitterness impression [4]: 39.5%*
Bitterness impression (on scale of 1-10) b) with test substance [4]: 3.6 ± 1.75

COc1cc([C@@H]2c3cc(O)c(OC)cc3C[C@H]3C(=O)OC[C@@H]23)ccc1O [(−)-α-conidendrin (6-(−)), (3aR,9R,9aS)-7-hydroxy-9-(4-hydroxy-3-methoxyphenyl)-6-methoxy-3a,4,9,9a-tetrahydro-1H-benzo[f][2]benzofuran-3-one]
Reduction in the bitterness impression [1, 8]: 20.8%
Bitterness impression (on scale of 1-10) b) with test substance [1]: 2.5 ± 0.94

COc1cc(C[C@H]2C(=O)OC[C@@H]2[C@H](O)c2ccc(O)c(OC)c2)ccc1O [(−)-hydroxymatairesinol(2-(−)), (3R,4R)-4-[(S)-hydroxy-(4-hydroxy-3-methoxy-phenyl)methyl]-3-[(4-hydroxy-3-methoxyphenyl)methyl]oxolan-2-one]
Reduction in the bitterness impression [1, 8]: 41.9%*
Bitterness impression (on scale of 1-10) b) with test substance [1]: 2.6 ± 1.72
